Data on one molecule can be found in patent US9867795B2, “Nitrated lipids and methods of making and using thereof” (The UAB Research Foundation, priority 2004, dated 2018).

Entries after “also recorded” stand apart in the source; their conditions may differ.

One assay has as its target T1, hPPARγ (Homo sapiens, UniProt P37231).
T1 construct: For assessing full-length PPAR receptors, CV-1 cells were transiently co-transfected; expressed in transfected cells; host or cells: CV-1 cells
T1 sequence (P37231 1-505): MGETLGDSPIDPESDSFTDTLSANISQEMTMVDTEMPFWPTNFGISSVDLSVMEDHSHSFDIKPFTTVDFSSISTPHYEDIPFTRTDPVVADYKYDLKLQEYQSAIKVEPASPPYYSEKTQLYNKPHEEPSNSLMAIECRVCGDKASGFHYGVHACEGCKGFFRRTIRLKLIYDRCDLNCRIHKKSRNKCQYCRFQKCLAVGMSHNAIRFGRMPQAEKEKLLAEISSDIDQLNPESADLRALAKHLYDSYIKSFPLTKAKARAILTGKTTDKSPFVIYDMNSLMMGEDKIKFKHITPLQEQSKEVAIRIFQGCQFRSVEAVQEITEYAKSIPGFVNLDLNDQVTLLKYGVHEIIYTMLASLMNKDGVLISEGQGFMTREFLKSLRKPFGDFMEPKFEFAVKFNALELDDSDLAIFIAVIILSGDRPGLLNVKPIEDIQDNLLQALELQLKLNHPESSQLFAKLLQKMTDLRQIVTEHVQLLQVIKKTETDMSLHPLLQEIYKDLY
Briefly: CV-1 PPRE×3 TK-Luciferase transient transfection assay. Format: cell-based. Particulars: GW9662 added 1 hr prior to nitrated fatty acid. The source says: Cell Transient Transfection Assay. […] Then, cells were transiently co-transfected with a plasmid containing the luciferase gene under regulation by four Gal4 DNA binding elements (UASG×4 TK-Luciferase, a gift from Dr. Ronald M. Evans), in concert with plasmids containing the ligand binding domain for the different nuclear receptors fused to the Gal4 DNA binding domain. For assessing full-length PPAR receptors, CV-1 cells were transiently co-transfected with a plasmid containing the luciferase gene under the control of three tandem PPAR response elements (PPRE) (PPRE×3 TK-Luciferase) and hPPARγ, hPPARα or hPPARδ expression plasmids, respectively. In all cases, fluorescence protein (GFP) expression plasmid was co-transfected as the control for the transfection efficiency. Twenty-four hours after the transfection, cells were cultured for another 24 hours in Optium-MEM (Invitrogen, Carlsbad, Calif.). Then, cells were treated with different compounds as indicated in figures for 24 hours in Optium-MEM. Reporter luciferase assay kits from Promega (Madison, Wis.) were used to measure the luciferase activity according to the manufacturer's instructions with a luminometer (Victor II, Perkin-Elmer). Luciferase activity was normalized by GFP units. Each condition was performed at least in triplicates in each experiment.
PPAR transient transfection assay. […] Twelve hours before transfection, the media was removed and antibiotic-free media was applied. Cells were transiently co-transfected with a plasmid containing the luciferase gene under the control of three tandem PPAR response elements (PPRE) (PPRE×3 TK-Luciferase) and PPARγ, PPARα or PPARδ expression plasmids, respectively. In all cases, fluorescence protein (GFP) expression plasmid was co-transfected as the control for transfection efficiency. Twenty-four hours after transfection, cells the returned to OptiMEM (Invitrogen, Carlsbad, Calif.) for 24 hr and then treated as indicated for another 24 hr. Reporter luciferase assay kits from Promega (Madison, Wis.) were used to measure the luciferase activity according to the manufacturer's instructions with a luminometer (Victor II, Perkin-Elmer). Luciferase activity was normalized by GFP units. Each condition was performed in triplicate in each experiment (n>3).

Another assay has as its system 3T3-L1 adipocytes. Kind of assay: [^3H]-2-Deoxy-D-glucose uptake assay in differentiated 3T3-L1 adipocytes. The class given is cell-based. Particulars: GW9662 added 1 h before nitrated lipids or Rosiglitazone. On the procedure:
[^3H]-2-Deoxy-D-glucose Uptake Assay in Differentiated 3T3-L1 Adipocyte. [^3H]-2-Deoxy-D-glucose uptake assay as previously described (19) 3T3-L1 preadipocytes were grown in 24-well tissue culture plates, 2-day postconfluent preadipocytes were treated by 10 μg/ml insulin (Sigma), 1 μM dexamethasone (Sigma), and 0.5 mM 3-isobutyl-1-methylxanthine (Sigma) in DMEM containing 10% FBS for two days, then cells were kept in 10 μg/ml insulin also in DMEM containing 10% FBS for 6 days (changed medium every three days). Eight days after induction of adipogenesis, test compounds in DMEM containing 10% FBS were added for an additional 2 days (changed medium every day) and PPARγ-specific antagonist GW9662 were pretreated 1 h before other additions. After two rinses with serum-free DMEM, cells were incubated for 3 h in serum-free DMEM and rinsed at room temperature three times with freshly prepared KRPH buffer (5 mM phosphate buffer, 20 mM HEPES, 1 mM MgSO4, 1 mM CaCl2, 136 mM NaCl, 4.7 mM KCl, pH 7.4). The buffer was replaced with 1 μCi/ml of [^3H]-2-deoxy-D-glucose in KRPH buffer for 10 min at room temperature. The treated cells were rinsed carefully three times with cold PBS, lysed overnight in 0.8N NaOH (0.4 ml/well), and neutralized with […] of 12N HCl. Lysate (360 μl) was added to 4 ml Scinti-Safe Plus TM 50% in a scintillation vial, and the vials were mixed and counted.
[^3H]-2-Deoxy-D-glucose uptake assay in differentiated 3T3-L1 adipocytes. [^3H]-2-deoxy-D-glucose uptake was analyzed as previously (23). […] Cells were then rinsed three times with cold PBS, lysed overnight in 0.8 N NaOH (0.4 ml/well), neutralized with 26.6 μl of 12 N HCl and 360 μl of lysate was added into 4 ml Scinti-Safe Plus™ 50% for radioactivity determination by liquid scintillation counting.

The subject of assay [1] is mouse RAW264.7 macrophages. Briefly: CD36 expression in macrophages (immunoblot, real-time PCR). Particulars: GW9662 added 1 h prior to treatment. In general terms: A western blot detects proteins with antibodies after separation by electrophoresis.

Take `O=C(Nc1ccccc1)c1cc([N+](=O)[O-])ccc1Cl` [GW9662, reference compound]: the “effect of GW9662 on nitrated fatty acid-mediated PPARγ activation” value at hPPARγ was “inhibited in a dose-dependent manner; also recorded: partially inhibited; also recorded: partially yet significantly blocked”. For the same molecule, the “effect of GW9662 on induced glucose uptake” value with 3T3-L1 adipocytes is on record as “partially inhibited; also recorded: significantly inhibited”. In addition, the “effect of GW9662 on LNO2-induced CD36 expression” value in assay [1] was “partially inhibitable”.
